How the values were obtained:
[1] = target: T1, FLJ20589 clone-derived protein (human hippocalcin-like protein 1, VILIP-3) (Homo sapiens, UniProt P37235); assay: SEC/MS interaction analysis (size exclusion spin column and mass analysis) with FLJ20589 clone-derived protein; type: binding
T1 construct: A human full-length cDNA clone was expressed as a protein with an N-terminal His tag; His tag (N); made in house; host or cells: Escherichia coli BL21star(DE3)pLysS (pDEST17 Gateway expression plasmid)

[2] = target: T2, FLJ39196 clone-derived protein (human neurocalcin δ) (Homo sapiens, UniProt P61601); assay: SEC/MS interaction analysis (size exclusion spin column and mass analysis) with FLJ39196 clone-derived protein; type: binding
T2 construct: A human full-length cDNA clone was expressed as a protein with an N-terminal His tag; His tag (N); made in house; host or cells: Escherichia coli BL21star(DE3)pLysS (pDEST17 Gateway expression plasmid)
Procedure, shortened: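 Unmodified, non-immobilized protein was mixed with compound and separated by size exclusion on 384-well Unifilter 100 spin columns packed with 10 μL Bio-Gel P6. The protein-fraction filtrate was collected in 50% acetonitrile, deproteinized, concentrated, redissolved in 10 μL of 50% methanol, and 2 μL was injected for ESI mass analysis of compound spectral intensity.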

[3] = protein 0 μM (protein-free reference), compound 1 μM
[4] = protein 0 μM (protein-free reference), compound 10 μM
[5] = protein 0 μM (protein-free reference), compound 100 μM
[6] = protein 0 μM (protein-free reference), compound 250 μM
[7] = protein 23.75 μM, compound 1 μM
[8] = protein 23.75 μM, compound 10 μM
[9] = protein 23.75 μM, compound 100 μM
[10] = protein 23.75 μM, compound 250 μM
[11] = protein 47.5 μM, compound 10 μM
[12] = protein 47.5 μM, compound 100 μM
[13] = protein 47.5 μM, compound 250 μM

SMILES | spectral intensity of the compound in the SEC spin column filtrate (protein fraction) [1, 3] | spectral intensity of the compound in the SEC spin column filtrate (protein fraction) [1, 4] | spectral intensity of the compound in the SEC spin column filtrate (protein fraction) [1, 5] | spectral intensity of the compound in the SEC spin column filtrate (protein fraction) [1, 6] | spectral intensity of the compound in the SEC spin column filtrate (protein fraction) [1, 7] | spectral intensity of the compound in the SEC spin column filtrate (protein fraction) [1, 8] | spectral intensity of the compound in the SEC spin column filtrate (protein fraction) [1, 9] | spectral intensity of the compound in the SEC spin column filtrate (protein fraction) [1, 10] | spectral intensity of the compound in the SEC spin column filtrate (protein fraction) ([1]; protein 47.5 μM, compound 1 μM) | spectral intensity of the compound in the SEC spin column filtrate (protein fraction) [1, 11] | spectral intensity of the compound in the SEC spin column filtrate (protein fraction) [1, 12] | spectral intensity of the compound in the SEC spin column filtrate (protein fraction) [1, 13] | spectral intensity of the compound in the SEC spin column filtrate (protein fraction) [2, 3] | spectral intensity of the compound in the SEC spin column filtrate (protein fraction) [2, 4] | spectral intensity of the compound in the SEC spin column filtrate (protein fraction) [2, 5] | spectral intensity of the compound in the SEC spin column filtrate (protein fraction) [2, 6] | spectral intensity of the compound in the SEC spin column filtrate (protein fraction) [2, 7] | spectral intensity of the compound in the SEC spin column filtrate (protein fraction) [2, 8] | spectral intensity of the compound in the SEC spin column filtrate (protein fraction) [2, 9] | spectral intensity of the compound in the SEC spin column filtrate (protein fraction) [2, 10] | also measured
CN1CCN(CCCN2c3ccccc3Sc3ccc(C(F)(F)F)cc32)CC1 [Trifluoperazine] | 1499445 | 1420853 | 2266965 | 4146130 | 469062 | 893634 | 41947038 | 57062370 | 459554 | 2953415 | 67433540 | 116228047 | 6645734 | 7904072 | 204390563 | 632906281 | 7580781 | 40058178 | 293702761 | 1292987653 | spectral intensity of the compound in the SEC spin column filtrate (protein fraction) ([2]; protein 47.5 μM, compound 1 μM): 7231665; spectral intensity of the compound in the SEC spin column filtrate (protein fraction) [2, 11]: 14142338; spectral intensity of the compound in the SEC spin column filtrate (protein fraction) [2, 12]: 5846308; spectral intensity of the compound in the SEC spin column filtrate (protein fraction) [2, 13]: 2293500744
O=C1CN=C(c2ccccc2)c2cc(Cl)ccc2N1CC1CC1 [prazepam] | 563508 | 752185 | 5911478 | 8158416 | 372254 | 1912944 | 27662748 | 53037838 | 603084 | 8279573 | 67316791 | 87274751 | 45379226 | 21988256 | 130413200 | 139016191 | 38417587 | 46660512 | 258681345 | 517983224 | spectral intensity of the compound in the SEC spin column filtrate (protein fraction) ([2]; protein 47.5 μM, compound 1 μM): 26479402; spectral intensity of the compound in the SEC spin column filtrate (protein fraction) [2, 11]: 67670753; spectral intensity of the compound in the SEC spin column filtrate (protein fraction) [2, 12]: 264065408; spectral intensity of the compound in the SEC spin column filtrate (protein fraction) [2, 13]: 706383483
